Assay results published in US4608338A, “Process for bioconversion-product recovery” (Celanese Corporation, priority 1982, dated 1986).

How the values were obtained:
[1] = solubility of muconic acid in acidified aqueous fermentation medium; type: physicochemical; conditions: pH of 1-2, 20° C.
Method: Under optimal conditions, the muconic acid accumulation limit can approach up to about 50 grams of muconic acid per liter of growth medium. The microbiological oxidation step of the present invention process normally is conducted at ambient temperatures up to about 31° C. The muconic acid at a concentration between about 10-45 grams/liter in the cell-free ammonia-neutralized aqueous fermentation medium is precipitated with sulfuric acid or phosphoric acid. The precipitated muconic acid (solubility at pH of 1-2, about 0.07% at 20° C.) is filtered, washed and dried. In a further embodiment of the present invention, the muconic acid is admixed with a solvent medium such as acetic acid (e.g., to form a 40 weight percent muconic acid/acetic acid slurry solution), and then treated under hydrogenation conditions to yield adipic acid.

[2] = solubility of muconic acid at pH 1.0 (Example III B, precipitation from regular "NO" medium); type: physicochemical
Method: To 500 ml of regular "NO" medium are added 15 grams of cis, cis-muconic acid. The pH of the solution is about […]. A 14.2 ml quantity of concentrated NH4 OH solution (15N) is added to adjust the pH to 6.2.
To the neutralized solution is added a 17 ml quantity of concentrated H2 SO4 solution, which lowers the pH of the solution to 0.99. White solids precipitate from the solution, and the solids are filtered, washed and recovered as muconic acid (quantitative recovery; solubility of muconic acid at pH 1.0 is 0.03 wt %).

O=C(O)/C=C\C=C/C(=O)O [muconic acid, cis, cis-muconic acid]
solubility [1]: about 0.07%
solubility [2]: 0.03 wt %
